Experiments:
[1] = molecular target: Histamine H3 receptor (Cavia porcellus) (UniProt Q9JI35); conditions: Ileum
Histamine H3 receptor [2] = molecular target: T1, Histamine H3 receptor (Homo sapiens, UniProt Q9Y5N1); assay: Displacement of [3H]N-alpha-methylhistamine from human histamine H3 receptor expressed in CHO cells; assay type: cell-based
Cytochrome P450 2D6 = Cytochrome P450 2D6 (Homo sapiens, UniProt P10635); assay: Inhibition of CYP2D6 in human liver microsomes assessed as dextromethorphan O-demethylase activity; assay type: ADME, Microsome
Histamine H4 receptor [3] = molecular target: T2, Histamine H4 receptor (Homo sapiens, UniProt Q9H3N8); assay: Displacement of [3H]histamine from human histamine H4 receptor expressed in CHO cells; assay type: cell-based
Histamine H3 receptor [4] = molecular target: T1, Histamine H3 receptor; assay: Agonist activity at human histamine H3 receptor assessed as effect on [35S]GTPgammaS binding; assay type: functional
Histamine H3 receptor [5] = molecular target: T3, Histamine H3 receptor (Cavia porcellus, UniProt Q9JI35); assay: Antagonist activity at guinea pig histamine H3 receptor assessed as inhibition of electrically induced twitch contraction; assay type: functional; conditions: read-out: pA2 (converted)
[6] = Inhibition of […] in human liver microsomes assessed as midazolam 1'-hydroxylase activity; assay type: ADME, Microsome
[7] = molecular target: Histamine H1 receptor (Homo sapiens) (UniProt P35367); assay: Inhibition of histamine H1 receptor at 10 uM
[8] = molecular target: Histamine H2 receptor (Homo sapiens) (UniProt P25021); assay: Inhibition of histamine H2 receptor at 10 uM
Histamine H3 receptor [9] = molecular target: Histamine H3 receptor (Rattus norvegicus, UniProt Q9QYN8); assay: Agonist activity at histamine H3 receptor in rat cortex
Histamine H4 receptor [10] = molecular target: T2, Histamine H4 receptor; assay: Displacement of [3H]histamine from human histamine H4 receptor expressed in CHO cells at 10 uM; assay type: cell-based
Histamine H3 receptor [11] = molecular target: T3, Histamine H3 receptor; assay: Activity at histamine H3 receptor in guinea pig ileum; assay type: tissue-based
[12] = molecular target: Histamine H3 receptor (Rattus norvegicus) (UniProt Q9QYN8); conditions: Cortex
Histamine H3 receptor [13] = molecular target: T1, Histamine H3 receptor; assay: Agonist activity at human histamine H3 receptor assessed as beta galactosidase activity; assay type: functional

Sequence of Cytochrome P450 2D6 (P10635 whole entry): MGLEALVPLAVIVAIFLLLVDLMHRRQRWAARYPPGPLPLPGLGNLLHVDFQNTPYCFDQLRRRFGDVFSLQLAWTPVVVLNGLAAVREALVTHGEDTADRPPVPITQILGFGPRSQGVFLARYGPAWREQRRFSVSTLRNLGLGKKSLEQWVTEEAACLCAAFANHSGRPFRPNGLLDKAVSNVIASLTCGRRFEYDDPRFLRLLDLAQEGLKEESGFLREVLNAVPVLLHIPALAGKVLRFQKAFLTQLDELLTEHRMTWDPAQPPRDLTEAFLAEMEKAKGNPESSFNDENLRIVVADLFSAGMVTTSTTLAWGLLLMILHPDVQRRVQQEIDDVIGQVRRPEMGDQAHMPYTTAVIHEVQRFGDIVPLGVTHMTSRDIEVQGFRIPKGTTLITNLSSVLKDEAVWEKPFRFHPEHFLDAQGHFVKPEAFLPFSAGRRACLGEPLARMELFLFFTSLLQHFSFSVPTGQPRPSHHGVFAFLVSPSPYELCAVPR
Sequence of Histamine H2 receptor (Homo sapiens) (P25021 whole entry): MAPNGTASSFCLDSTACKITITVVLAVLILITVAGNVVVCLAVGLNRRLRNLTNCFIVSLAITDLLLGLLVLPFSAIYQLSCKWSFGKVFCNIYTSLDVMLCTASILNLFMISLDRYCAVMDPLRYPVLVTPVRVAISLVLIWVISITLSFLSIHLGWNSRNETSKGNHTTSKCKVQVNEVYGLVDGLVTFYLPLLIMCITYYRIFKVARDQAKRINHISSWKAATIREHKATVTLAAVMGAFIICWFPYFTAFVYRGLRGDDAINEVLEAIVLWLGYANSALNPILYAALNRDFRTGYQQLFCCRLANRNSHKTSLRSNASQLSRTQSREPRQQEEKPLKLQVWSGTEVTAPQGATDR
T2 sequence (Q9H3N8 whole entry): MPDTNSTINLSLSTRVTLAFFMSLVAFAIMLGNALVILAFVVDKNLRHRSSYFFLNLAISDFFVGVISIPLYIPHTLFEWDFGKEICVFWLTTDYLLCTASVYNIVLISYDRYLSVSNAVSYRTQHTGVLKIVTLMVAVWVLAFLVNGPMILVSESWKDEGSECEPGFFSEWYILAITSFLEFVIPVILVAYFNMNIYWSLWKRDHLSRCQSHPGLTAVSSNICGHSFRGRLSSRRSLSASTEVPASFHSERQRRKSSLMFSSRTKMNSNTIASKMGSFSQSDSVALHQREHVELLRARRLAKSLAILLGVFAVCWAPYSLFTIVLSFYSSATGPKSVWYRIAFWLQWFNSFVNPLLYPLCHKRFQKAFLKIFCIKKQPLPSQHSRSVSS
T3 sequence (Q9JI35 whole entry): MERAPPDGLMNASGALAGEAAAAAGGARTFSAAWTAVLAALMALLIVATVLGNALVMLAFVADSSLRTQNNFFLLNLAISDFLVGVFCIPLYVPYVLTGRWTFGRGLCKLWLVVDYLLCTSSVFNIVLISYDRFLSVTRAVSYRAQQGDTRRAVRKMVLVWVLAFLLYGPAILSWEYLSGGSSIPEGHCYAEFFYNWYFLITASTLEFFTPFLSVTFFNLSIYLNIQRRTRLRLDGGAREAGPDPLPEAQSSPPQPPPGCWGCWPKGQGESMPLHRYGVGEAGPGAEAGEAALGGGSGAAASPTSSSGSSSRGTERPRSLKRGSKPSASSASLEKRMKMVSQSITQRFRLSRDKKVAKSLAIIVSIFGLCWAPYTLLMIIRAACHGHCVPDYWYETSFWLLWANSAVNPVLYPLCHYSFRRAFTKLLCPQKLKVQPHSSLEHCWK
T1 sequence (Q9Y5N1 whole entry): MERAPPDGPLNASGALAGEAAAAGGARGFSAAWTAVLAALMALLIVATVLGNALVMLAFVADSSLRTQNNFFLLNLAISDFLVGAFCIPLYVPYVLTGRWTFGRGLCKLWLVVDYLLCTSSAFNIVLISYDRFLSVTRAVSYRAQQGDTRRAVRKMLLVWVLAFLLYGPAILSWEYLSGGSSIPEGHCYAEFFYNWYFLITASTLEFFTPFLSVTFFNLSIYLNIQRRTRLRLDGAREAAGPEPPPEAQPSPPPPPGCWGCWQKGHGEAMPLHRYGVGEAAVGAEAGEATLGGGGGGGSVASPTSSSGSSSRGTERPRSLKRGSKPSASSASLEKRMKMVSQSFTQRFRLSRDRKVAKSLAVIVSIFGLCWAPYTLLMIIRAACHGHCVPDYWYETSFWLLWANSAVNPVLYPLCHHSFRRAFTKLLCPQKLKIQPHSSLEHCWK
Sequence of Histamine H1 receptor (Homo sapiens) (P35367 whole entry): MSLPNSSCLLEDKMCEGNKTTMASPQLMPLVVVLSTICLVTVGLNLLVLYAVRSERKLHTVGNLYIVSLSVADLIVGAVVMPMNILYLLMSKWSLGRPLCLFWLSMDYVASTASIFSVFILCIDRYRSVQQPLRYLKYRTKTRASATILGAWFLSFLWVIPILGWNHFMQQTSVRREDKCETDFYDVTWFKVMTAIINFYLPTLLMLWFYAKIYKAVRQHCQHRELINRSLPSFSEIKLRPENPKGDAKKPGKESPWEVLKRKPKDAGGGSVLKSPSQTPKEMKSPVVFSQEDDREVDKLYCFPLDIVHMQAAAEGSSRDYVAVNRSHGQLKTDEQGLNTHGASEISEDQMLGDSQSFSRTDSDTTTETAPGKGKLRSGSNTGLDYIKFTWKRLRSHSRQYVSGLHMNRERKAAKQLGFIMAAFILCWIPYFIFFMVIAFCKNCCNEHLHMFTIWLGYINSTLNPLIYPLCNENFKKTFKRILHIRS
Sequence of Histamine H3 receptor (Cavia porcellus) (Q9JI35 whole entry): as the sequence (Q9JI35 whole entry) above
Sequence of Histamine H3 receptor (Rattus norvegicus) (Q9QYN8 whole entry): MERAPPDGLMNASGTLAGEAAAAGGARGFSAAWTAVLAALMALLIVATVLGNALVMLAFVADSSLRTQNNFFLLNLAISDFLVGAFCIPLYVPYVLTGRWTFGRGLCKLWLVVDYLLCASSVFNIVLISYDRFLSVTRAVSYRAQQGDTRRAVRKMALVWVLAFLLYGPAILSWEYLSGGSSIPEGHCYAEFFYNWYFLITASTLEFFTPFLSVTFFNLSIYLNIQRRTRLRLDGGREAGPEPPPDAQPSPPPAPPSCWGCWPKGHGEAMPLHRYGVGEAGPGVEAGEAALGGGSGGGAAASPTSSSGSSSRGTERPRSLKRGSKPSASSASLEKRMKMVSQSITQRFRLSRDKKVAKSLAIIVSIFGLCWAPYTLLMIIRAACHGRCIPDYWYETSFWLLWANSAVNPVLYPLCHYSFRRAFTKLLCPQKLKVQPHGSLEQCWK
Sequence of Histamine H3 receptor (Rattus norvegicus, UniProt Q9QYN8) (Q9QYN8 whole entry): as above

Which pD2 [1] does the source give for `CNCCc1cnc[nH]1` here?
The pD2 was 7.8.

For `CC(C)(C)CCC#C[C@@H]1C[C@H]1c1c[nH]cn1` (single isomer, unassigned) [CIPRALISANT], which Ki (Histamine H3 receptor [2]) is on record?
Its Ki is 3.98 nM.

For `c1cc(Cc2c[nH]cn2)cc(C2=NCC3(CCCCC3)O2)c1`, which Ki (Histamine H3 receptor [2]) is on record?
Its Ki is 56.2 nM.

What does the source list for `CC(C)(C)CC(=O)c1cccc(Cc2cnc[nH]2)c1`?
IC50 (Cytochrome P450 2D6): 1930 nM; Ki (Histamine H3 receptor [2]): 32.4 nM; Ki (Histamine H4 receptor [3]): 5.62 nM; EC50 (Histamine H3 receptor [4]): 79.4 nM; Kb (Histamine H3 receptor [5]): 955 nM

What does the source list for `C(#Cc1cccc(Cc2c[nH]cn2)c1)c1ccccc1`?
IC50 [6]: 2760 nM; IC50 (Cytochrome P450 2D6): 488 nM; Ki (Histamine H3 receptor [2]): 1.82 nM

Which Ki (Histamine H3 receptor [2]) does the source give for `c1ccc(-c2cccc(Cc3c[nH]cn3)c2)nc1` here?
The Ki was 40.7 nM.

For `CC1CC(C)(C)N=C(c2cccc(Cc3c[nH]cn3)c2)O1` (stereo unspecified), which IC50 [6] is on record?
Its IC50 is 873 nM.

And the IC50 (Cytochrome P450 2D6)?
The IC50 was 292 nM.

And the Ki (Histamine H3 receptor [2])?
Its Ki is 1.26 nM.

What about the Ki (Histamine H4 receptor [3]) of the same molecule?
The Ki was 8.32 nM.

What about the inhibition [7] of the same molecule?
Its inhibition is < 20%.

And the EC50 (Histamine H3 receptor [4])?
The EC50 was 2 nM.

And the Kb (Histamine H3 receptor [5])?
Its Kb is 3.98 nM.

And the inhibition [8]?
Its inhibition is < 40%.

For `c1ccc(COCCCc2c[nH]cn2)cc1` [PROXYFAN], which Ki (Histamine H3 receptor [9]) is on record?
Its Ki is 10 nM.

Which results are given for `c1ccc(C[C@@H]2COC(c3cccc(Cc4cnc[nH]4)c3)=N2)cc1`?
Ki (Histamine H3 receptor [2]): 89.1 nM; EC50 (Histamine H3 receptor [4]): 79.4 nM; Kb (Histamine H3 receptor [5]): 2240 nM

What does the source list for `CC1(C)COC(c2ccc(Cc3c[nH]cn3)cc2)=N1`?
IC50 [6]: 2520 nM; IC50 (Cytochrome P450 2D6): 543 nM; Ki (Histamine H3 receptor [2]): 2510 nM; inhibition (Histamine H4 receptor [10]): 17%

Which Ki (Histamine H3 receptor [2]) does the source give for `N#Cc1ccc(Cc2c[nH]cn2)cc1` here?
The Ki was 813 nM.

Which Ki (Histamine H3 receptor [2]) does the source give for `c1nc(CC2CCNCC2)c[nH]1` [IMMEPIP] here?
Its Ki is 0.407 nM.

With `CNCCc1c[nH]cn1` as the molecule, how does the Ki (Histamine H3 receptor [11]) read?
The Ki was 2.51 nM.

Which Ki (Histamine H3 receptor [2]) does the source give for `c1cc(Cc2cnc[nH]2)cc(C2=NC3(CCCC3)CO2)c1` here?
The Ki was 39.8 nM.

Which results are given for `CC1(C)COC(c2cccc(Cc3c[nH]cn3)c2)=N1`?
Ki (Histamine H3 receptor [2]): 3.98 nM; EC50 (Histamine H3 receptor [4]): 15.8 nM

Which pD2 [12] does the source give for `C[C@@H](N)Cc1c[nH]cn1` here?
The pD2 was 8.4.

With `CC1(C)CN=C(c2cccc(Cc3cnc[nH]3)c2)OC1` as the molecule, how does the Ki (Histamine H3 receptor [2]) read?
Its Ki is 2510 nM.

For `CCCC#Cc1cccc(Cc2c[nH]cn2)c1`, which IC50 [6] is on record?
The IC50 was 1640 nM.

What about the IC50 (Cytochrome P450 2D6) of the same molecule?
The IC50 was 644 nM.

And the Ki (Histamine H3 receptor [2])?
The Ki was 3.16 nM.

With `Brc1ccc(Cc2c[nH]cn2)cc1` as the molecule, how does the Ki (Histamine H3 receptor [2]) read?
The Ki was 417 nM.

And the EC50 (Histamine H3 receptor [4])?
The EC50 was 631 nM.

Which Ki (Histamine H3 receptor [2]) does the source give for `Nc1ccc(Cc2c[nH]cn2)cc1` here?
The Ki was 257 nM.

With `N#Cc1cccc(Cc2c[nH]cn2)c1` as the molecule, how does the Ki (Histamine H3 receptor [2]) read?
The Ki was 155 nM.

For `c1cc(Cc2cnc[nH]2)cc(C2=NC(CC3CCCCC3)CO2)c1` (stereo unspecified), which Ki (Histamine H3 receptor [2]) is on record?
The Ki was 708 nM.

For `CC(C)(C)C#Cc1cccc(Cc2c[nH]cn2)c1`, which IC50 [6] is on record?
Its IC50 is 1860 nM.

What about the IC50 (Cytochrome P450 2D6) of the same molecule?
Its IC50 is 1780 nM.

And the Ki (Histamine H3 receptor [2])?
The Ki was 4.47 nM.

And the Ki (Histamine H4 receptor [3])?
The Ki was 5.62 nM.

And the inhibition [7]?
The inhibition was < 20%.

What about the EC50 (Histamine H3 receptor [4]) of the same molecule?
Its EC50 is 7.94 nM.

What about the Kb (Histamine H3 receptor [5]) of the same molecule?
The Kb was 79.4 nM.

And the inhibition [8]?
Its inhibition is < 40%.

For `c1ccc(-c2cccc(Cc3cnc[nH]3)c2)cc1`, which Ki (Histamine H3 receptor [2]) is on record?
Its Ki is 33.1 nM.

And the EC50 (Histamine H3 receptor [4])?
The EC50 was 200 nM.

Which Ki (Histamine H3 receptor [2]) does the source give for `c1ccc(Cc2c[nH]cn2)cc1` here?
Its Ki is 162 nM.

With `CCCCc1c[nH]cn1` as the molecule, how does the Ki (Histamine H3 receptor [2]) read?
Its Ki is 25.1 nM.

And the EC50 (Histamine H3 receptor [13])?
Its EC50 is 31.6 nM.

For `CC(C)(C)C#Cc1ccc(Cc2c[nH]cn2)cc1`, which Ki (Histamine H3 receptor [2]) is on record?
Its Ki is 537 nM.

Which Ki (Histamine H3 receptor [2]) does the source give for `c1cc(Cc2cnc[nH]2)cc(-c2ccncc2)c1` here?
Its Ki is 427 nM.

Which EC50 (Histamine H3 receptor [13]) does the source give for `c1cc(Cc2cnc[nH]2)ccn1` [IMMETHRIDINE] here?
The EC50 was 0.2 nM.

With `CC(C)(C)CC(=O)c1cccc(Cc2c[nH]cn2)c1` as the molecule, how does the IC50 [6] read?
The IC50 was 1100 nM.

And the inhibition [7]?
Its inhibition is < 20%.

And the inhibition [8]?
Its inhibition is < 40%.

For `C[C@H]1CNC[C@@H]1c1c[nH]cn1`, which pD2 [1] is on record?
The pD2 was 7.5.

What about the Ki (Histamine H3 receptor [11]) of the same molecule?
The Ki was 2.51 nM.

For `C(#Cc1cccc2ccccc12)c1cccc(Cc2c[nH]cn2)c1`, which Ki (Histamine H3 receptor [2]) is on record?
Its Ki is 1740 nM.

From ChEMBL document CHEMBL1150292, “4-benzyl-1H-imidazoles with oxazoline termini as histamine H3 receptor agonists” (J Med Chem, 2008)
